Laboratory results as given in patent publication US10597391B2, “Urea-containing isoxazole derivatives as FXR agonists and methods of use thereof” (Enanta Pharmaceuticals, Inc., priority 2016, dated 2020).
Like-named read-outs stand apart in the source and are kept apart here.

Biological target: T1, human FXR (NR1H4) (Homo sapiens, UniProt Q96RI1)
T1 sequence (Q96RI1 1-486): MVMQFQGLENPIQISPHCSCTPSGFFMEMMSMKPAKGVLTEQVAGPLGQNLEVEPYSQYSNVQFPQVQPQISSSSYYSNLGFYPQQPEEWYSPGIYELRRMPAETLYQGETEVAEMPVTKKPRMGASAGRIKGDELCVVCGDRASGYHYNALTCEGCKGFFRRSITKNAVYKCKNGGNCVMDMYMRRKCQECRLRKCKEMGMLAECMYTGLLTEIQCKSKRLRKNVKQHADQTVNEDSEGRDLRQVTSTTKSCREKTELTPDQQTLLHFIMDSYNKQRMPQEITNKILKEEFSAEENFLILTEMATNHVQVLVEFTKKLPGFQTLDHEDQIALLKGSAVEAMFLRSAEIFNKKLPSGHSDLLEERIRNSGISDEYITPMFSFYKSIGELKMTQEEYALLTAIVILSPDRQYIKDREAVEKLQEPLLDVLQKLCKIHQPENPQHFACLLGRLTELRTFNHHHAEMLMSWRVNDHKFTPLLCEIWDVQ
Experiment: Human FXR (NR1H4) Assay: Gal4 promoter driven luciferase reporter transactivation in CHO cells (Indigo Bioscience kit IB00601)
Assay type: cell-based
Conditions: for Emax: CHO, read-out: Efficacy (%); for EC50: potency range, Human FXR (NR1H4) reporter assay in CHO cells, read-out: EC50
Summary of the method: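 CHO reporter cells expressing human NR1H4 with luciferase driven by an FXR-responsive promoter (Gal4 system), run per manufacturer's kit. Compounds applied to plated cells, then incubated a further 22 hours at 37° C. Luciferase luminescence read after detection reagent as a surrogate of FXR activation, giving potency and efficacy.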

[1] = efficacy normalized to CDCA set as 100%

SMILES	Emax [1]	EC50	Emax
O=C(NCCS(=O)(=O)O)c1ccc(NC(=O)N2C3CCC2CC(OCc2c(-c4c(Cl)cccc4Cl)noc2C2CC2)C3)c(F)c1 (stereo not drawn) [Example 780]	0%	100 to 1000 nM	–
CN(C)S(=O)(=O)NC(=O)c1cccc(NC(=O)N2C3CCC2CC(OCc2c(-c4c(Cl)cccc4Cl)noc2C2CC2)C3)c1 (stereo not drawn) [Example 219]	–	100 to 1000 nM	–
N#Cc1cccc(NC(=O)N2C3CCC2CC(NCc2c(-c4c(Cl)cccc4Cl)noc2C2CC2)C3)c1 (stereo not drawn) [Example 93]	–	10 to 100 nM	–
O=C(O)c1ccc2c(c1)CN(C(=O)N1C3CCC1CC(OCc1c(-c4ccccc4OC(F)(F)F)noc1C1CC1)C3)C2 (stereo not drawn) [Example 598]	–	10 to 100 nM	105%
CN(C)C(=O)c1cccc(NC(=O)N2C3CCC2CC(OCc2c(-c4c(Cl)cccc4Cl)noc2C2CC2)C3)c1 (stereo not drawn) [Example 215]	–	< 10 nM	–
CCOc1cc(C(=O)O)ccc1NC(=O)N1C2CCC1CC(OCc1c(C3CCC4(CC3)CC4)noc1C1CC1)C2 (stereo not drawn) [Example 813]	16%	10 to 100 nM	–
COC(=O)c1ccc(NC(=O)N2C3CCC2CC(OCc2c(-c4c(Cl)cccc4Cl)noc2C2CC2)C3)c(F)c1-c1ccccc1 (stereo not drawn) [Example 795]	44%	10 to 100 nM	–
CS(=O)(=O)NC(=O)c1cccc(NC(=O)N2C3CCC2CC(OCc2c(-c4ccccc4OC(F)(F)F)noc2C2CC2)C3)c1 (stereo not drawn) [Example 262]	–	> 1000 nM	–
O=C(Nc1ccncc1)N1C2CCC1CC(OCc1c(-c3c(Cl)cccc3Cl)noc1C1CC1)C2 (stereo not drawn) [Example 17]	–	10 to 100 nM	–
O=C(O)c1ccc(NC(=O)N2C3CCC2CC(OCc2c(-c4ccccc4OC(F)(F)F)noc2C2CC2)C3)c(F)c1 (stereo not drawn) [Example 239]	–	10 to 100 nM	–
O=C(O)c1ccc(NC(=O)N2C3CCC2CC(OCc2c(-c4c(F)cccc4F)noc2C2CC2)C3)c(C(F)(F)F)c1 (stereo not drawn) [Example 818]	25%	10 to 100 nM	–
COC(=O)c1cc(OC)c(NC(=O)N2C3CCC2CC(OCc2c(-c4c(Cl)cccc4Cl)noc2C2CC2)C3)cc1-c1ccccc1 (stereo not drawn) [Example 792]	92%	< 10 nM	–
O=C(O)c1ccc2c(c1)CCCN2C(=O)N1C2CCC1CC(OCc1c(-c3ccccc3OC(F)(F)F)noc1C1CC1)C2 (stereo not drawn) [Example 594]	–	100 to 1000 nM	49%
CCOC(=O)c1ccc2c(c1)N(C(=O)N1C3CCC1CC(OCc1c(-c4ccccc4OC(F)(F)F)noc1C1CC1)C3)CCC2 (stereo not drawn) [Example 595]	–	> 1000 nM	7%
Cn1cc(-c2cc(NC(=O)N3C4CCC3CC(OCc3c(-c5c(Cl)cccc5Cl)noc3C3CC3)C4)ccc2C(=O)O)cn1 (stereo not drawn) [Example 776]	11%	100 to 1000 nM	–
O=C(c1ccc(-c2cccc(NC(=O)N3C4CCC3CC(OCc3c(-c5c(Cl)cccc5Cl)noc3C3CC3)C4)c2)cc1)N1CCOCC1 (stereo not drawn) [Example 707]	220%	10 to 100 nM	–
CC(C)(C)c1ccc(C(=O)NC(=O)N2C3CCC2CC(OCc2c(-c4c(Cl)cccc4Cl)noc2C2CC2)C3)cc1 (stereo not drawn) [Example 806]	5%	10 to 100 nM	–
O=C(N[C@H]1CC[C@H](C(=O)O)CC1)N1C2CCC1CC(OCc1c(-c3ccccc3OC(F)(F)F)noc1C1CC1)C2 (stereo partly drawn) [Example 266]	–	100 to 1000 nM	–
CC(=O)N1CCC(c2cccc(NC(=O)N3C4CCC3CC(OCc3c(-c5c(Cl)cccc5Cl)noc3C3CC3)C4)c2)CC1 (stereo not drawn) [Example 714]	156%	10 to 100 nM	–
O=C(O)c1ccc(NC(=O)N2C3CCC2CC(OCc2c(-c4c(Cl)cccc4Cl)noc2C2CC2)C3)cc1C(F)(F)F (stereo not drawn) [Example 195]	–	10 to 100 nM	–

SMILES	Emax [1]	EC50	Emax
CCOC(=O)c1ccc(NC(=O)N2C3CCC2CC(NCc2c(-c4c(Cl)cccc4Cl)noc2C2CC2)C3)c(OCC)c1 (stereo not drawn) [Example 829]	57%	10 to 100 nM	–
O=C(O)c1ccc(NC(=O)N2C3CCC2CC(OCc2c(-c4ccccc4OC(F)(F)F)noc2C2CC2)C3)cc1 (stereo not drawn) [Example 230]	–	10 to 100 nM	–
N#Cc1ccc(NC(=O)N2C3CCC2CC(OCc2c(-c4c(Cl)cccc4Cl)noc2C2CC2)C3)cc1 (stereo not drawn) [Example 9]	–	10 to 100 nM	–
O=C(NCc1cncc(-c2ccccc2)c1)N1C2CCC1CC(OCc1c(-c3c(Cl)cccc3Cl)noc1C1CC1)C2 (stereo not drawn) [Example 739]	108%	10 to 100 nM	–
O=C(Nc1cccc(C2=CCCCC2)c1)N1C2CCC1CC(OCc1c(-c3c(Cl)cccc3Cl)noc1C1CC1)C2 (stereo not drawn) [Example 711]	157%	< 10 nM	–
O=C(Nc1ccccc1)N1C2CCC1CC(OCc1c(-c3c(Cl)cccc3Cl)noc1C1CC1)C2 (stereo not drawn) [Example 696]	246%	< 10 nM	–
O=C(Nc1ccc2ncccc2c1)N1C2CCC1CC(OCc1c(-c3c(Cl)cccc3Cl)noc1C1CC1)C2 (stereo not drawn) [Example 22]	–	< 10 nM	–
O=C(Nc1cccc(-c2nccs2)c1)N1C2CCC1CC(OCc1c(-c3c(Cl)cccc3Cl)noc1C1CC1)C2 (stereo not drawn) [Example 737]	179%	< 10 nM	–
O=C(NS(=O)(=O)C1CC1)c1cccc(NC(=O)N2C3CCC2CC(OCc2c(-c4ccccc4OC(F)(F)F)noc2C2CC2)C3)c1 (stereo not drawn) [Example 264]	–	> 1000 nM	–
O=C(Nc1ccccn1)N1C2CCC1CC(OCc1c(-c3c(Cl)cccc3Cl)noc1C1CC1)C2 (stereo not drawn) [Example 16]	–	100 to 1000 nM	–
Cn1nnnc1-c1cccc(NC(=O)N2C3CCC2CC(OCc2c(-c4c(Cl)cccc4Cl)noc2C2CC2)C3)c1 (stereo not drawn) [Example 186]	–	10 to 100 nM	–
CC(=O)N1CC=C(c2cccc(NC(=O)N3C4CCC3CC(OCc3c(-c5c(Cl)cccc5Cl)noc3C3CC3)C4)c2)CC1 (stereo not drawn) [Example 713]	162%	< 10 nM	–
O=C(O)c1ccc(NC(=O)N2C3CCC2CC(NCc2c(-c4c(Cl)cccc4Cl)noc2C2CC2)C3)cc1 (stereo not drawn) [Example 826]	63%	10 to 100 nM	–
O=C(O)CNC(=O)c1ccc(NC(=O)N2C3CCC2CC(OCc2c(-c4c(Cl)cccc4Cl)noc2C2CC2)C3)c(F)c1 (stereo not drawn) [Example 783]	0%	100 to 1000 nM	–
COC(=O)c1ccc2c(c1)CN(C(=O)N1C3CCC1CC(OCc1c(-c4ccccc4OC(F)(F)F)noc1C1CC1)C3)CC2 (stereo not drawn) [Example 833]	80%	> 1000 nM	–
CC1(S(=O)(=O)NC(=O)c2ccc(NC(=O)N3C4CCC3CC(OCc3c(-c5c(Cl)cccc5Cl)noc3C3CC3)C4)c(F)c2)CC1 (stereo not drawn) [Example 693]	203%	100 to 1000 nM	–
O=C(Nc1ccc(-c2ccccc2)cc1)N1C2CCC1CC(OCc1c(-c3c(Cl)cccc3Cl)noc1C1CC1)C2 (stereo not drawn) [Example 728]	141%	10 to 100 nM	–
CCOc1cc(C(=O)O)ccc1NC(=O)N1C2CCC1CC(OCc1c(-c3ccccc3OC(F)(F)F)noc1C1CC1)C2 (stereo not drawn) [Example 823]	112%	10 to 100 nM	–
O=C(Nc1cc(F)cc(C(F)(F)F)c1)N1C2CCC1CC(OCc1c(-c3c(Cl)cccc3Cl)noc1C1CC1)C2 (stereo not drawn) [Example 11]	–	< 10 nM	–
